How the values were obtained:
Format in all cases: physicochemical
[1] = 1H NMR spectra of Ln(9)^3+ complexes, exchangeable amide protons
From the text: For certain Ln(9)^3+ complexes, for example, with Ln equal to Yb or Tm, the bound water molecules are ^1H NMR invisible probably due to the fast exchange between the bound water and the bulk water. […] Unfortunately, the NMR signal was invisible, probably due to its fast exchange with the bulk water. However, the eight exchangeable amide protons present as two resonance peaks with equivalent intensity, at −14.5 (Ha) and −17.7 (Hb) ppm, respectively, are visible.

[2] = pH dependence of amide proton (Ha, Hb) lifetimes τM^298 and Δω•τM of Yb(9)^3+
From the text: As indicated by their linewidths, illustrated in FIG. 24, the two exchangeable amide sites have different dependences upon pH. As further illustrated in FIG. 25, Hb exchanges about 1.3 times faster than that of Ha. […] Similar to that discussed above for Ln(1)^3+, either too fast or too slow exchange may produce less MT. For the conditions used to obtain the data presented in Table 2, the maximum MT effect appear to be obtained for Ln(9)^3+ complexes when the exchange limiting regime is about 15.

[3] = Effect of saturation duration on MT with Yb(9)^3+ (bulk water 1H NMR); conditions: 5 mM, pH 7.4, 25° C.; saturating pulse of about 2 s or longer centered between amide proton signals, bandwidth 1500 Hz
Description: An eleventh series of experiments was conducted to examine the effect of saturation duration on the magnitude of MT obtained using the Yb(9)^3+ complex. […] The upper series of spectra (a) were obtained while applying a saturating pulse of different duration and centered between the resonance signals of the exchangeable amide protons, with a saturating bandwidth of 1500 Hz. The saturating bandwidth was produced using conventional water elimination technique (i.e., a wet1d pulse sequence). See Varian User Manual; Varian NMR, Palo Alto, Calif.; User Guide, VNMR Version 6.1 software, 1997), incorporated herein by reference. The pulse sequence to produce saturation was modified to include hard loops to shape the pulse train (90° e-burp1, typically repeated from about 0 to about 500 times) with a bandwidth of 1500 Hz (pwwet=3.0 ms and wetpwr=28 db). The lower series (b) of spectra, shown inverted to facilitate comparison to series (a), were obtained while applying the same saturating pulse, but on the opposite side and equal distance away from the bulk water MR signal. As the illustrated in FIG. 26, for a saturating pulse of about 2 s or longer, about a 38% decrease in the bulk water signal was obtained for series (a).

In the case of NC(=O)CN1CCN(CC(N)=O)CCN(CC(N)=O)CCN(CC(N)=O)CC1.[Yb+3] [Yb(9)^3+], the “chemical shift of amide protons, first set (Ha)” value [1] is reported as −14.5 ppm, the “chemical shift of amide protons, second set (Hb)” value [1] is reported as −17.7 ppm and the “Hb exchanges faster than Ha” value [2] is reported as “about 1.3 times”. The “exchange limiting regimes Δω•τM of both amide protons” value ([2]; 7.05 T, broad range of pH values) was greater than 1, the “τM^298, Ha” value ([2]; pH 6.46) was 5.00 ms and the “τM^298, Hb” value ([2]; pH 6.46) was 4.00 ms. The “Δω•τM^298, Ha” value ([2]; pH 6.46, 7.05 T) was 139.3, the “Δω•τM^298, Hb” value ([2]; pH 6.46, 7.05 T) was 133.7 and the “τM^298, Ha” value ([2]; pH 6.76) was 2.30 ms. The “τM^298, Hb” value ([2]; pH 6.76) was 1.78 ms, the “Δω•τM^298, Ha” value ([2]; pH 6.76, 7.05 T) was 64.1 and the “Δω•τM^298, Hb” value ([2]; pH 6.76, 7.05 T) was 59.5. The “τM^298, Ha” value ([2]; pH 7.06) was 1.21 ms, the “τM^298, Hb” value ([2]; pH 7.06) was 0.82 ms and the “Δω•τM^298, Ha” value ([2]; pH 7.06, 7.05 T) was 33.6. For the same molecule, the “Δω•τM^298, Hb” value ([2]; pH 7.06, 7.05 T) was 27.2, the “τM^298, Ha” value ([2]; pH 7.21) was 0.92 ms and the “τM^298, Hb” value ([2]; pH 7.21) was 0.72 ms. The “Δω•τM^298, Ha” value ([2]; pH 7.21, 7.05 T) was 25.5, the “Δω•τM^298, Hb” value ([2]; pH 7.21, 7.05 T) was 24.2 and the “τM^298, Ha” value ([2]; pH 7.43) was 0.64 ms. For the same molecule, the “τM^298, Hb” value ([2]; pH 7.43) was 0.52 ms, the “Δω•τM^298, Ha” value ([2]; pH 7.43, 7.05 T) was 17.9 and the “Δω•τM^298, Hb” value ([2]; pH 7.43, 7.05 T) was 17.4. The “τM^298, Ha” value ([2]; pH 7.84) was 0.57 ms, the “τM^298, Hb” value ([2]; pH 7.84) was 0.44 ms and the “Δω•τM^298, Ha” value ([2]; pH 7.84, 7.05 T) was 15.9. For the same molecule, the “Δω•τM^298, Hb” value ([2]; pH 7.84, 7.05 T) was 14.7 and the “decrease in the bulk water signal, series (a)” value [3] was roughly 38%.
